Experimental data published in patent US11230538B2, “Herbicides” (SYNGENTA PARTICIPATIONS AG, priority 2016, dated 2022).

How the values were obtained:
Type in all cases: in vivo
Avena fatua (AVEFA) [1] = test: B2 Post-emergence herbicidal activity; conditions: post-emergence application, rate 1000 g/ha, evaluated after 13 days
Outline: (§1)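 Visual damage score (0 = none, 5 = total) taken 13 days after treatment. Seedlings had been cultivated 8 days in pots of standard soil before being sprayed with an aqueous solution of compound in acetone/water (50:50) containing 0.5% Tween 20.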

[2] = tested on: Echinochloa crus-galli (ECHCG); test: B2 Post-emergence herbicidal activity; design: key to Post-emergence herbicidal activity, ECHCG (damage score 0-5): 5=total damage to plant; 0=no damage to plant; conditions: post-emergence application, rate 1000 g/ha, evaluated after 13 days
Outline: as §1

[3] = tested on: Echinochloa crus-galli (ECHCG); test: B1 Pre-emergence herbicidal activity; design: key to Pre-emergence herbicidal activity, ECHCG (damage score 0-5): 5=total damage to plant; 0=no damage to plant; conditions: pre-emergence application, rate 1000 g/ha, evaluated after 13 days
Outline: (§2)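 Damage was rated visually on a 0–5 scale (0 no damage, 5 total damage) 13 days after treatment. Soil-sown seeds had been sprayed one day after sowing with an aqueous acetone/water (50:50) solution containing 0.5% Tween 20, then kept in a glasshouse at 24/16 °C, 14 h light, 65% humidity.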

Lolium perenne (LOLPE) [4] = test: B1 Pre-emergence herbicidal activity; design: key to Pre-emergence herbicidal activity, LOLPE (damage score 0-5): 5=total damage to plant; 0=no damage to plant; conditions: pre-emergence application, rate 1000 g/ha, evaluated after 13 days
Outline: as §2

[5] = tested on: Alopecurus myosuroides (ALOMY); test: B2 Post-emergence herbicidal activity; design: key: 5=total damage to plant; 0=no damage to plant; conditions: post-emergence application, rate 1000 g/ha, evaluated after 13 days
Outline: as §1

[6] = tested on: Triticum aestivium (TRZAW); test: B2 Post-emergence herbicidal activity; design: key: 5=total damage to plant; 0=no damage to plant; conditions: post-emergence application, rate 1000 g/ha, evaluated after 13 days
Outline: as §1

Setaria fabenri (SETFA) = test: B2 Post-emergence herbicidal activity; design: key: 5=total damage to plant; 0=no damage to plant; conditions: post-emergence application, rate 1000 g/ha, evaluated after 13 days
Outline: as §1

Setaria fabenr (SETFA) = test: B1 Pre-emergence herbicidal activity; design: key to Pre-emergence herbicidal activity, SETFA (damage score 0-5): 5=total damage to plant; 0=no damage to plant; conditions: pre-emergence application, rate 1000 g/ha, evaluated after 13 days
Outline: as §2

[7] = tested on: Alopecurus myosuroides (ALOMY); test: B1 Pre-emergence herbicidal activity; design: key: 5=total damage to plant; 0=no damage to plant; conditions: pre-emergence application, rate 1000 g/ha, evaluated after 13 days
Outline: as §2

[8] = tested on: Triticum aestivium (TRZAW); test: B1 Pre-emergence herbicidal activity; design: key: 5=total damage to plant; 0=no damage to plant; conditions: pre-emergence application, rate 1000 g/ha, evaluated after 13 days
Outline: as §2

Avena fatua (AVEFA) [9] = test: B1 Pre-emergence herbicidal activity; design: key: 5=total damage to plant; 0=no damage to plant; conditions: pre-emergence application, rate 1000 g/ha, evaluated after 13 days
Outline: as §2

Lolium perenne (LOLPE) [10] = test: B2 Post-emergence herbicidal activity; conditions: post-emergence application, rate 1000 g/ha, evaluated after 13 days
Outline: as §1

Compound	Post-emergence herbicidal activity, AVEFA (damage score 0-5) (Avena fatua (AVEFA) [1])	Post-emergence herbicidal activity, ECHCG (damage score 0-5) [2]	Pre-emergence herbicidal activity, ECHCG (damage score 0-5) [3]	Pre-emergence herbicidal activity, LOLPE (damage score 0-5) (Lolium perenne (LOLPE) [4])	Post-emergence herbicidal activity, ALOMY (damage score 0-5) [5]	Post-emergence herbicidal activity, TRAZW (damage score 0-5) [6]	Post-emergence herbicidal activity, SETFA (damage score 0-5) (Setaria fabenri (SETFA))	Pre-emergence herbicidal activity, SETFA (damage score 0-5) (Setaria fabenr (SETFA))	Pre-emergence herbicidal activity, ALOMY (damage score 0-5) [7]	Pre-emergence herbicidal activity, TRAZW (damage score 0-5) [8]	Pre-emergence herbicidal activity, AVEFA (damage score 0-5) (Avena fatua (AVEFA) [9])	Post-emergence herbicidal activity, LOLPE (damage score 0-5) (Lolium perenne (LOLPE) [10])
C=CCN(C(=O)CC)c1ccc(-c2cncc(F)c2)nc1C(F)(F)F [Compound C39]	3	5	4	1	0	1	5	5	0	0	2	2
CCOC(=O)CC(=O)Nc1ccc(-c2cncc(F)c2)nc1C(F)(F)F [Compound C42]	4	5	4	1	0	1	5	4	0	0	2	2
CCC(=O)N(C(=O)CC)c1ccc(-c2cncc(F)c2)nc1C(F)(F)F [Compound C44]	3	5	5	1	1	0	5	4	0	0	2	3
O=C(Nc1ccc(-c2cncc(F)c2)nc1C(F)(F)F)c1ccccn1 [Compound C45]	2	5	5	1	0	1	5	4	0	0	2	2
O=C(Nc1ccc(-c2cncc(F)c2)nc1C(F)(F)F)c1ccccc1F [Compound C46]	2	3	2	1	0	0	4	4	0	0	1	1
O=C(Nc1ccc(-c2cncc(F)c2)nc1C(F)(F)F)c1cccs1 [Compound C47]	4	5	5	1	1	0	5	4	1	0	2	3
CCCCC(=O)Nc1ccc(-c2cncc(F)c2)nc1C(F)(F)F [Compound C49]	4	5	5	1	1	0	5	5	1	0	2	3
O=C(Nc1ccc(-c2cncc(F)c2)nc1C(F)(F)F)c1cccnc1 [Compound C50, N-[6-(5-fluoro-3-pyridyl)-2-(trifluoromethyl)-3-pyridyl]pyridine-3-carboxamide]	3	2	3	1	1	0	4	4	0	0	1	1
Cc1ccsc1C(=O)Nc1ccc(-c2cncc(F)c2)nc1C(F)(F)F [Compound C51]	2	2	3	0	0	0	4	4	0	0	0	1
Cc1ccc(C(=O)Nc2ccc(-c3cncc(F)c3)nc2C(F)(F)F)s1 [Compound C52]	4	4	4	1	0	0	5	5	1	0	1	2
